# According to patent publication US20240158446A1, “CYCLIC COMPOUND HAVING SELECTIVE INHIBITORY ACTION ON KRAS OVER HRAS AND NRAS” (CHUGAI SEIYAKU KABUSHIKI KAISHA, priority 2021, published 2024):
# Like-named read-outs stand apart in the source and are kept apart here.
# Legend:
# [1] = molecular target: GDP-bound HRAS wild-type protein (Homo sapiens, UniProt P01112); experiment: Binding to HRAS by surface plasmon resonance (SPR), Single Cycle Kinetics; conditions: SPR, GDP-bound HRAS wild-type protein vs GDP-bound KRAS wild-type protein
# Sequence of GDP-bound HRAS wild-type protein (P01112 whole entry): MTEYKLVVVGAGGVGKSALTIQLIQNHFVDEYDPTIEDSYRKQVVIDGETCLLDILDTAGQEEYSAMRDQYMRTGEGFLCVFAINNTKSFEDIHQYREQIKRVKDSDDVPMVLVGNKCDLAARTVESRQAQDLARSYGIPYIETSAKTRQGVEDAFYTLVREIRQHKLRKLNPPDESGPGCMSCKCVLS
# [2] = tested on: human lung cancer strain NCI-H441;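 also: cell proliferation inhibition after four days measured by CellTiter-Glo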
# [3] = molecular target: GDP-bound NRAS wild-type protein (Homo sapiens, UniProt P01111); experiment: Binding to NRAS by surface plasmon resonance (SPR), Single Cycle Kinetics; conditions: SPR, GDP-bound NRAS wild-type protein vs GDP-bound KRAS wild-type protein
# Sequence of GDP-bound NRAS wild-type protein (P01111 whole entry): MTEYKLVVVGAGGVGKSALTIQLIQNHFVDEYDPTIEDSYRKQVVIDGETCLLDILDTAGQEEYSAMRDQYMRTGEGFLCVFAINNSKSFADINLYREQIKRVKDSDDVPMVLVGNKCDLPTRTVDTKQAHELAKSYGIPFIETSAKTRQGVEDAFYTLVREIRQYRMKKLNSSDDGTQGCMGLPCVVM
# [4] = molecular target: GDP-bound KRAS wild-type protein (Homo sapiens, UniProt P01116); experiment: Binding to KRAS by surface plasmon resonance (SPR), Single Cycle Kinetics; conditions: SPR, Single Cycle Kinetics, GDP-bound KRAS wild-type protein, read-out: KRAS KD
# Sequence of GDP-bound KRAS wild-type protein (P01116 whole entry): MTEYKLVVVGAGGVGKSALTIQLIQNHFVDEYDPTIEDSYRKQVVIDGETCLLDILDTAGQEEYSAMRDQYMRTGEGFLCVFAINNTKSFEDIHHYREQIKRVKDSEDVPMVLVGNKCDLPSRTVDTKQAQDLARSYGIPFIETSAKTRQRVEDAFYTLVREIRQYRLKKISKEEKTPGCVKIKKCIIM
IC50 [2] [nM],Kd [4] [nM],Kd ([4]; 1:1 binding model) [nM],SMILES,HRAS/KRAS (ratio of KD value for HRAS to KD value for KRAS) [1],NRAS/KRAS (ratio of KD value for NRAS to KD value for KRAS) [3],HRAS/KRAS (ratio of KD value for HRAS to KD value for KRAS) ([1]; KD ratio class),NRAS/KRAS (ratio of KD value for NRAS to KD value for KRAS) ([3]; KD ratio class)
120,2.1,–,CCOC[C@H]1C(=O)N[C@@H]([C@@H](C)OCC)C(=O)N2CCC[C@H]2C(=O)N(C)[C@H]2C/C=C\CCN(C2=O)[C@@H](Cc2ccc(C)cc2)C(=O)N(C)CC(=O)N[C@@H](CCc2ccc(C(F)(F)F)c(OC)c2)C(=O)N2C[C@@H](C)C[C@H]2C(=O)NC2(CC(C)(C)C2)C(=O)N(C)[C@@H](C2CCCC2)C(=O)N(C)[C@H](C(=O)N(C)CC)CC(=O)N1C [PP2433],A (a compound having 10 or more and less than 20 is denoted as A),AA (a compound having 20 or more is denoted as AA),–,–
51.7,0.23,–,CCCO[C@H](C)[C@@H]1NC(=O)[C@H](COCC)N(C)C(=O)C[C@@H](C(=O)N(C)CC)N(C)C(=O)[C@H](C2CCCC2)N(C)C(=O)C2(CC(C)(C)C2)NC(=O)[C@@H]2C[C@H](C)CN2C(=O)[C@H](CCc2ccc(C(F)(F)F)c(OC)c2)NC(=O)CN(C)C(=O)[C@H](Cc2ccc(C)cc2)N2CC/C=C\C[C@@H](C2=O)N(C)C(=O)CN(C)C1=O [PP2425],A (a compound having 10 or more and less than 20 is denoted as A),AA (a compound having 20 or more is denoted as AA),–,–
61.1,–,0.14,"CC[C@H](C)[C@@H]1NC(=O)[C@H](CC)N(C)C(=O)C[C@@H](C(=O)N(C)C)N(C)C(=O)[C@H](C2CCCC2)N(C)C(=O)C2(CCC2)NC(=O)[C@@H]2C[C@@H](C(F)(F)F)CN2C(=O)[C@H](CCc2cc(F)c(C(F)(F)F)c(F)c2)NC(=O)CN(C)C(=O)[C@H](CC2CCC(F)(F)CC2)N2CC/C=C\C[C@@H](C2=O)N(C)C(=O)CN(C)C1=O [PP1451, (2S,8S,12R,14S,20S,23S,27S,30S,36S,38Z)-20-cyclopentyl-2-[(4,4-difluorocyclohexyl)methyl]-8-[2-[3,5-difluoro-4-(trifluoromethyl)phenyl]ethyl]-27-ethyl-N,N,4,19,22,26,32,35-octamethyl-30-[(1S)-1-methylpropyl]-3,6,9,15,18,21,25,28,31,34,42-undecaoxo-12-(trifluoromethyl)spiro[1,4,7,10,16,19,22,26,29,32,35-undecazatricyclo[34.5.1.0^10,14]dotetracont-38-ene-17,1′-cyclobutane]-23-carboxamide]",–,–,A (a compound having 10 or more and less than 20 is denoted as A),A (a compound having 10 or more and less than 20 is denoted as A)
13.2,–,0.058,"CCO[C@@H]1C[C@H]2C(=O)NC3(CCC3)C(=O)N(C)[C@@H](C3CCCC3)C(=O)N(C)[C@H](C(=O)N(C)C)CC(=O)N(C)[C@@H](CC)C(=O)N[C@@H]([C@@H](C)CC)C(=O)N(C)CC(=O)N(C)[C@H]3C/C=C\CCN(C3=O)[C@@H](Cc3ccc(C(F)(F)F)cc3)C(=O)N(C)CC(=O)N[C@@H](CCc3ccc(C(F)(F)F)c(OC)c3)C(=O)N2C1 [PP1243, (2S,8S,12R,14S,20S,23S,27S,30S,36S,38Z)-20-cyclopentyl-12-ethoxy-27-ethyl-8-[2-[3-methoxy-4-(trifluoromethyl)phenyl]ethyl]-N,N,4,19,22,26,32,35-octamethyl-30-[(1S)-1-methylpropyl]-3,6,9,15,18,21,25,28,31,34,42-undecaoxo-2-[[4-(trifluoromethyl)phenyl]methyl]spiro[1,4,7,10,16,19,22,26,29,32,35-undecazatricyclo[34.5.1.0^10,14]dotetracont-38-ene-17,1′-cyclobutane]-23-carboxamide]",–,–,A (a compound having 10 or more and less than 20 is denoted as A),A (a compound having 10 or more and less than 20 is denoted as A)
